From article PMC6627609, “Targeting Quorum Sensing: High-Throughput Screening to Identify Novel LsrK Inhibitors” (International Journal of Molecular Sciences, 2019)
“And” between values parts separate entries of the source, which are not always exact repeats. Identical values can stand only once. Like-named read-outs stand apart in the source and are kept apart here.

Assays:
LsrK = LsrK (Salmonella typhimurium, UniProt Q8ZKQ6); assay: biochemical; type: biochemical, S. typhimurium
His-LsrK [1] = target: T1, His-LsrK (Salmonella typhimurium, UniProt Q8ZKQ6); assay: Thermal shift assay; type: binding, S. typhimurium; conditions: for shift in the Tm of His-LsrK: mean ± 95% CI; for shift in the Tm of His-LsrK (in words): dose range of test compound
Description: Compounds were added to qPCR plates by Echo acoustic dispenser with a DMSO backfill to maintain a constant final concentration of DMSO in each well (the assay is tolerant up to 8% DMSO with no effect on Tm of LsrK). LsrK protein was added at a concentration of 1 µg per well in a volume of 10 µL with 1× Thermo thermal shift dye or 5× Sypro Orange dye (used for aurin tricarboxylic acid as this compound fluoresces with Thermo dye in 25 mM TEA, 200 µM MgCl2, pH 7.1). Appropriate DMSO-only negative controls and 1 mM ATP/DMSO positive controls were included in each test occasion. Using an Applied Biosystems Quant Studio 5 qPCR machine (Thermo Fisher Scientific, Waltham, MA, USA) the following thermal shift protocol was used: step 1—hold at 25 °C for 1 min; step 2—heat at 0.05 °C/s dissociation then hold at 99 °C for 1 min. Filter setting for Thermo dye: Ex/Em 580/623 nm and for Sypro Orange dye: Ex/Em 470/520 nm.

E. coli LW7 pLW11 = assay: AI-2 QS interference assay; type: cell-based; conditions: for IC50: dose-response in the presence of PAβN, read-out: IC50 AI-2 QS inhibition
[2] = system: His-tagged control peptide or SDS denatured His-LsrK; assay: MST assay, specificity controls; type: binding
His-LsrK [3] = target: T1, His-LsrK; assay: MST assay; type: binding, S. typhimurium; conditions: 95% CI
rat = conditions: cited from earlier work
mouse = conditions: ref MicroSource annotations, cited from earlier work
[4] = cited from earlier work
E. coli pBAC-lacZ = assay: Control strain β-gal assay (QS-independent lac promoter); type: cell-based
[5] = po, ref MicroSource annotations
[6] = ip, ref MicroSource annotations

LsrK, sequence (Q8ZKQ6 whole entry): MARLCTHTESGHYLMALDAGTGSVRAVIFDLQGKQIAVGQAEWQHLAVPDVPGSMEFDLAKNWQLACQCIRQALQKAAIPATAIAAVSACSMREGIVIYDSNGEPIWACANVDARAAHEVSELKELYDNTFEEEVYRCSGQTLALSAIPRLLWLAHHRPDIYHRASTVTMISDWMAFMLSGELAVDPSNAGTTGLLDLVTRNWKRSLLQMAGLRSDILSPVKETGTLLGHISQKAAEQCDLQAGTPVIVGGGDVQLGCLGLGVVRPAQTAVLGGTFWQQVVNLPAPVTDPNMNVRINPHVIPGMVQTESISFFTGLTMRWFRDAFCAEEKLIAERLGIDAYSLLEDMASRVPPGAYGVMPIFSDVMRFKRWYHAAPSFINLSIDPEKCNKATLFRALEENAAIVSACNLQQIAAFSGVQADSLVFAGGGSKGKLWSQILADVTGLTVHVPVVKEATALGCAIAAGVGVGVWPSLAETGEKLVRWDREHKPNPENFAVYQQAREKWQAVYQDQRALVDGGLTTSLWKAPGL
T1 sequence (Q8ZKQ6 whole entry): as above

## CCCCCCCCCCCCCCCCC(C(=O)O)C(O)(CC(=O)O)C(=O)O (stereo not shown) [AGARIC ACID]
LsrK
  IC50: 7 µM
  inhibition at 50 µM: 157%
His-LsrK [1]; 10 µM
  shift in the Tm of His-LsrK: −4.7 ± 0.70 °C

## C[C@]1(OC(=O)/C=C/c2ccccc2)C[C@@H](O)[C@]2(O)C=CO[C@@H](O[C@@H]3O[C@H](CO)[C@@H](O)[C@H](O)[C@H]3O)[C@@H]21 [HARPAGOSIDE]
LsrK
  IC50: 10 µM
  inhibition at 50 µM: 108%
E. coli LW7 pLW11; 10 µM, in the presence of PAβN
  inhibition of AI-2 mediated QS: only minor
E. coli LW7 pLW11; Escherichia coli, 50 µM, in the presence of PAβN, read-out: inhibition of AI-2 mediated QS
  inhibition at 50 µM: ~50%
E. coli LW7 pLW11; Escherichia coli
  IC50: 14 µM
[2]
  binding in MST to control peptide or SDS denatured His-LsrK: No binding
His-LsrK [1]
  shift in the Tm of His-LsrK (in words): significant, dose-dependent, positive shift in the Tm
His-LsrK [3]
  Kd: 18.4 ± 0.9 µM

## CC[C@@H](C)C(=O)O[C@H]1[C@H](O)[C@H]2[C@@H](CN3C[C@@H](C)CC[C@H]3[C@@]2(C)O)[C@@H]2C[C@]34O[C@]5(O)[C@@H](OC(=O)[C@@](C)(O)CC)CC[C@@]3(C)[C@@H]5[C@@H](OC(C)=O)[C@@H](OC(C)=O)[C@H]4[C@@]21O [PROT[…]]
rat; [5]
  LD50: 5 mg/kg
LsrK
  inhibition at 50 µM: 1%

## CN[C@@H]1[C@@H](O[C@H]2O[C@H](CO)[C@@H](N)[C@H](O)[C@H]2O)OC2C[C@@H](N)[C@@H](O[C@H]3[C@H](O)[C@@H](O)[C@H](N)C[C@@H]3N)OC2[C@@H]1O (stereo partly shown) [APRAMYCIN]
LsrK
  inhibition at 50 µM: 3%
mouse; iv
  LD50: 280 mg/kg

## CC1=C(O)C(=O)C=C2C1=CC=C1[C@@]2(C)CC[C@@]2(C)[C@@H]3C[C@](C)(C(=O)O)CC[C@]3(C)CC[C@]12C [CELASTROL]
[4]
  solubility: poor solubility
LsrK
  IC50: 4 µM
  inhibition at 50 µM: 109%

## O=C1C=CC(=C(c2ccc(O)cc2)c2ccc(O)cc2)C=C1 [ROSOLIC ACID]
E. coli pBAC-lacZ
  effect on β-gal expression or activity in the control strain: marginally affected
LsrK
  IC50: 1 µM
  inhibition at 50 µM: 119%
E. coli LW7 pLW11; 50 µM, in the presence of PAβN
  inhibition of AI-2 mediated QS: nearly complete inhibition
E. coli LW7 pLW11; Escherichia coli, 10 µM, in the presence of PAβN, read-out: inhibition of AI-2 mediated QS
  inhibition at 10 µM: 68%
E. coli LW7 pLW11; Escherichia coli
  IC50: 11 µM
[2]
  binding in MST to control peptide or SDS denatured His-LsrK: No binding
His-LsrK [1]
  shift in the Tm of His-LsrK (in words): positively stabilizes His-LsrK in thermal shift at high concentrations
His-LsrK [3]
  Kd: 100 µM and ~100 µM

## C=C1CC[C@H](O)C/C1=C/C=C1\CCC[C@]2(C)[C@@H]([C@H](C)/C=C/[C@H](C)C(C)C)CC[C@@H]12 [ERGOCALCIFEROL]
rat; in vivo, po
  LD50: 56 mg/kg
LsrK
  inhibition at 50 µM: 56%

## CC(C)=CCC[C@]1(C)C=Cc2c(O)c3c(c(CC=C(C)C)c2O1)O[C@]12C(=C[C@@H]4C[C@H]1C(C)(C)O[C@@]2(C/C=C(/C)C(=O)O)C4=O)C3=O [GAMBOGIC ACID]
rat; [6]
  LD50: 88 mg/kg
LsrK
  inhibition at 50 µM: 89%

## CC(C)[C@@H]1NC(=O)[C@H](C)OC(=O)[C@@H](C(C)C)NC(=O)[C@@H](C(C)C)OC(=O)[C@H](C(C)C)NC(=O)[C@H](C)OC(=O)[C@@H](C(C)C)NC(=O)[C@@H](C(C)C)OC(=O)[C@H](C(C)C)NC(=O)[C@H](C)OC(=O)[C@@H](C(C)C)NC(=O)[C@@H](C(C)C)OC1=O [VALINOMYCIN]
rat; [5]
  LD50: 4 mg/kg
LsrK
  inhibition at 50 µM: 1%

## C[C@@H]1CC[C@@]2(OC1)O[C@H]1C[C@H]3[C@@H]4CC=C5C[C@@H](O)CC[C@]5(C)[C@H]4CC[C@]3(C)[C@H]1[C@@H]2C [DIOSGENIN]
rat; [6]
  LD50: 4872 mg/kg
LsrK
  inhibition at 50 µM: 0%
mouse; po
  LD50: > 8000 mg/kg

## C[C@H](CCC(=O)O)[C@H]1CC[C@H]2[C@@H]3CC[C@@H]4C[C@H](O)CC[C@]4(C)[C@H]3CC[C@]12C [LITHOCHOLIC ACID]
LsrK
  inhibition at 50 µM: 2%
mouse; po
  LD50: 3900 mg/kg

## O=C(O)C1=CC(=C(c2ccc(O)c(C(=O)O)c2)c2ccc(O)c(C(=O)O)c2)C=CC1=O [AURIN TRICARBOXYLIC ACID]
LsrK
  IC50: 1 µM
  inhibition at 50 µM: 96%
E. coli LW7 pLW11; 10 µM, in the presence of PAβN
  inhibition of AI-2 mediated QS: No significant activity
E. coli LW7 pLW11; 50 µM, in the presence of PAβN
  inhibition of AI-2 mediated QS: No significant activity
[2]
  binding in MST to control peptide or SDS denatured His-LsrK: no binding
His-LsrK [1]; 20 µM
  shift in the Tm of His-LsrK: −0.85 ± 0.38 °C
His-LsrK [3]
  Kd: 0.408 ± 0.0699 µM

## OC[C@H]1O[C@@H](Oc2ccc(O)cc2)[C@H](O)[C@@H](O)[C@@H]1O [ARBUTIN]
LsrK
  inhibition at 50 µM: 2%
